Experimental findings from patent US6797497B1, “Biological process for the production of ortho-aminophenols from nitroaromatic compounds using mutase” (The United States of America as represented by the …, priority 2001, dated 2004) are described below.

This test addresses T1, nitrobenzene nitroreductase (Ectopseudomonas oleovorans, UniProt Q6DLR9).
T1 construct: The fractions containing nitrobenzene nitroreductase activity, which eluted in the linear gradient between 65 to 80 ml, were pooled; made in house; host or cells: Pseudomonas pseudoalcaligenes JS45, the native organism (not recombinant); Crude extract fractionated on Q-Sepharose Fast Flow
The test is described as follows: Nitrobenzene nitroreductase activity on nitroarene substrates (NADPH oxidation). It is filed as biochemical, Pseudomonas pseudoalcaligenes strain JS45. Conditions: partially purified enzyme; compound as substrate.

Structures are written as SMILES.

T1 sequence (Q6DLR9 2-227): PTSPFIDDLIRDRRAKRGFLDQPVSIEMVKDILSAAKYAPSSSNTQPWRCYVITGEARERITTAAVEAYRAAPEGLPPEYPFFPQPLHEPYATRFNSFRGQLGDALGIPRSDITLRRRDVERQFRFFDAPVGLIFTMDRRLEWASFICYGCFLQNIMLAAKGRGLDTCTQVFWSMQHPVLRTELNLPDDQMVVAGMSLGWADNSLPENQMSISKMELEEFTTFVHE
Protocol: The crude extract was loaded on a 100 ml Q-Sepharose Fast Flow column (Pharmacia, XK-26) previously equilibrated with 150 mM KCl in 20 mM phosphate buffer. Proteins were eluted with a step gradient that began with 100 ml buffer containing KCl (150 mM) and then a linear gradient of 150 to 300 mM KCl at a flow rate of 2.5 ml/min.
A high performance liquid chromatograph (HPLC) equipped with a diode array detector monitoring A210 (Hewlett-Packard, Model 1040M, Wilmington Del.) was used to identify and quantitate the nitroarenes, intermediates and corresponding aminophenols. […] For the whole cell transformation experiments, the nitroarenes and products were separated on an ABZ column (Supelco, Bellefonte, Pa.) using acetonitrile/water as solvent system. Capillary gas chromatography/mass spectral (GC/MS) analyses were performed splitless on a Hewlett-Packard GC (model 5890) equipped with a mass selective detector (model 5971) and a DB-5 column (J & W Scientific, Folsom, Calif., 30 m long×0.25 mm I.D.×1.0 μm film thickness). The aminophenol derivatized with BSTFA was analyzed by GC/MS using the temperature program beginning at 100° C. and increased 10° C./min to 280° C. The n-butylboronic acid derivative was analyzed using an initial temperature of 50° C. increasing 20° C./min to 340°C.

For `O=[N+]([O-])c1ccc(Oc2ccccc2)cc1` [4-nitrobiphenyl ether], the “rate of transformation by partially purified nitrobenzene nitroreductase” value is 8.1 μmol/min/mg protein.

For `O=[N+]([O-])c1ccccc1` [nitrobenzene], the “rate of transformation by partially purified nitrobenzene nitroreductase” value was 7.9 μmol/min/mg protein.
